Measured values: PubChem BioAssay AID1963962 (Molecular Pharmacology Branch, DTP, NCI, 2024)
Each block holds one molecule with its values, some of them ahead of it.

Tested on: 967376-340-R-J2-PDC multicell spheroid viability
Test: Anticancer human tumor 967376-340-R-J2-PDC patient-derived colon adenocarcinoma cell line growth inhibition [PI3K]
Details: for viability, T/C: stronger effect = lower value
In short: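 Targeted small molecules plus PI3K inhibitors, half-log dose series from Cmax (default top 10 microM), were applied to heterotypic spheroids of cancer cells with HUVEC and MSCs. Viability indicated growth inhibition.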
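Also: spheroids exposed to agents for 7 days before read-out.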
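For viability, T/C in this document: luminescence used as surrogate of cell viability.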

IC50 (curve of first compound, second compound 0.00316 µM): > 10 µM
IC50 (curve of first compound, second compound 0.01 µM): > 10 µM
IC50 (curve of first compound, second compound 0.0316 µM): > 10 µM
IC50 (curve of first compound, second compound 0.1 µM): > 10 µM
IC50 (curve of first compound, second compound 0.316 µM): > 10 µM
IC50 (curve of first compound, second compound 1 µM): 0.0465 µM
Compound: Cn1nccc1Nc1nccc(-c2ccn(C(CO)c3ccc(Cl)c(F)c3)c(=O)c2)n1 (stereo not drawn) + CC(Nc1ccc2c(c1)OCCn1cc(N3C(=O)OCC3C(F)F)nc1-2)C(N)=O
viability, T/C (second compound 0.00316 µM, first compound 0.0316 µM): 100%
viability, T/C (second compound 0.00316 µM, first compound 0.1 µM): 89.8%
viability, T/C (second compound 0.00316 µM, first compound 0.316 µM): 105%
viability, T/C (second compound 0.00316 µM, first compound 1 µM): 71.5%
viability, T/C (second compound 0.00316 µM, first compound 3.16 µM): 108%
viability, T/C (second compound 0.00316 µM, first compound 10 µM): 101%
viability, T/C (second compound 0.01 µM, first compound 0.0316 µM): 107%
viability, T/C (second compound 0.01 µM, first compound 0.1 µM): 67.5%
viability, T/C (second compound 0.01 µM, first compound 0.316 µM): 81%
viability, T/C (second compound 0.01 µM, first compound 1 µM): 82.2%
viability, T/C (second compound 0.01 µM, first compound 3.16 µM): 91.8%
viability, T/C (second compound 0.01 µM, first compound 10 µM): 102%
viability, T/C (second compound 0.0316 µM, first compound 0.0316 µM): 80.8%
viability, T/C (second compound 0.0316 µM, first compound 0.1 µM): 101%
viability, T/C (second compound 0.0316 µM, first compound 0.316 µM): 76.8%
viability, T/C (second compound 0.0316 µM, first compound 1 µM): 92%
viability, T/C (second compound 0.0316 µM, first compound 3.16 µM): 70.9%
viability, T/C (second compound 0.0316 µM, first compound 10 µM): 85.3%
viability, T/C (second compound 0.1 µM, first compound 0.0316 µM): 72.3%
viability, T/C (second compound 0.1 µM, first compound 0.1 µM): 65.6%
viability, T/C (second compound 0.1 µM, first compound 0.316 µM): 79.3%
viability, T/C (second compound 0.1 µM, first compound 1 µM): 78.4%
viability, T/C (second compound 0.1 µM, first compound 3.16 µM): 72.9%
viability, T/C (second compound 0.1 µM, first compound 10 µM): 70.3%
viability, T/C (second compound 0.316 µM, first compound 0.0316 µM): 62.5%
viability, T/C (second compound 0.316 µM, first compound 0.1 µM): 68%
viability, T/C (second compound 0.316 µM, first compound 0.316 µM): 60.2%
viability, T/C (second compound 0.316 µM, first compound 1 µM): 78%
viability, T/C (second compound 0.316 µM, first compound 3.16 µM): 63.1%
viability, T/C (second compound 0.316 µM, first compound 10 µM): 46.6%
viability, T/C (second compound 1 µM, first compound 0.0316 µM): 49.6%
viability, T/C (second compound 1 µM, first compound 0.1 µM): 48.3%
viability, T/C (second compound 1 µM, first compound 0.316 µM): 48.4%
viability, T/C (second compound 1 µM, first compound 1 µM): 41.6%
viability, T/C (second compound 1 µM, first compound 3.16 µM): 32.3%
viability, T/C (second compound 1 µM, first compound 10 µM): 31.2%

IC50 (curve of compound): > 10 µM
Compound: C[C@@H](NC(=O)c1ncnc(N)c1Cl)c1ncc(C(=O)Nc2cc(C(F)(F)F)c(Cl)cn2)s1
viability, T/C (compound 0.1 µM): 95.8% [middle of 4 runs]
viability, T/C (compound 0.316 µM): 94% [middle of 4 runs]
viability, T/C (compound 1 µM): 110% [middle of 4 runs]
viability, T/C (compound 3.16 µM): 107% [middle of 4 runs]
viability, T/C (compound 10 µM): 109% [middle of 4 runs]
